This is an account of results in patent EP0470323A2, “New salts of the nicotinic acid with aminobenzylic compounds and their pharmaceutical use” (BROMLEY LIMITED, priority 1990, dated 1992).

The test system of assay [1] is Central artery of a rabbit's ear. The assay can be described thus: In vitro antispastic action, adrenalin-induced spasm of the perfused isolated artery. As to conditions: for % inhibi-tions of the con-tractions: spasm induced by Adrenalin, n=4. On the procedure: An "in vitro" method has been used, according to which the withdrawal of the central artery of a rabbit's ear with the relevant nervous connections and the equipment of an appropriate seat for secluded organs was designed (Fleckenstein A., British Journal of Pharmacology 7, 533, 1952).
On the artery they did install a three-ways tube, connected with a peristaltic pump and with a mercury manometer to record the perfusion pressure. The artery was perfused with a rebs liquid at the speed of 2,5 ml/minute. The contractions were induced by injecting into the vessel 0,1 ml adrenalin at the concentration of 1 mcg/ml. The compound according to the example 1 has been added to the bath at concentrations of 0,5 - 1 - 2 uM, five minutes before the adrenalin (four preparations per concentration). As comparison drugs, chlorhydra ted Buflomedil and Papaverin have been used. The activity of the material under investigation has been appreciated in terms of percentages referring to the concentration induced by the Adrenalin (and expressed with DE₅₀) and the relevant forbidding.

Assay [2] relates to skin temperature of the mouse's paw. The experiment in a line: Peripheral vessel-dilating activity in the mouse (skin temperature of hind paws). As to conditions: for Temperature (°C) of the hind paws (n=10): intravenous, dose 0,030 mM/kg/iv; for Temperature (°C) of the hind paws: oral, dose 0,500 mM/kg/os. Format: in vivo. The protocol:
The method of Richter W. (Acta Pharm. Toxicol. 21, 91; 1974) was used; it consists in determining, at fixed time intervals after the treatment, the skin temperature of the mouse's paw, by keeping the animals in rooms at a constant temperature of 21°C.
Some groups of ten male mouses each have been used; the weight of each animal was 30 g approximately.
The compound according to the Example 1 has been tested "per os" at three basic levels of the doses (0,125 - 0,25 - 0,5 mM/kg) and by intravenous injection at two dose levels (0,015 and 0,03 mM/kg), in comparison with one sole dose of Papaverin and chlorhydrated Buflomedil (0,5 mM/kg "per os" and 0,03m M/kg intravenous). The observation of the skin temperature at the mouse's paw was made before the treatment, 30, 60 and 120 minutes after the "per os" treatment, […] (A-Hl Ellab) connected with an Ellab electric recorder. Of each animal the temperature of both hind paws has been measured, and the values obtained have been averaged .

Assay [3] concerns hypertrigliceridaemia from olive oil in the rats. The assay can be described thus: Hypertriglyceridaemia from olive oil in the rat (serum lactescence). Format: in vivo. The conditions noted are these: dose 2 mM/kg/os. The protocol:
The method described by Zucker I.H. (Sci. Anal. Lab. 24, 114, 1972) has been followed.
Male rats have been used, whose body weight was 150-200 g. The animals were without eating with water "ad libitum" and all this beginning 24 hours before the experiment. The hyperlipaemia was induced by the administration of olive oil by mouth; its composition as to the fat acids was as follows: palmitic acid 10% palmitoleic acid 1%, stearic acid 3%, […] and linoleic acid 7% (all percentages are by weight). The quantity of olive oil administered, by means of a gastric probe, was 10 ml/kg. The treatments were made by finely pounding with a china mortar and by suspending in the olive oil the examined compounds. […] The positive control animals received only olive oil; moreover, there was also a group of negative control animals who received plain water in quantities of 10 ml/kg. Every three hours a group of rats (10) was killed in a light ethereal anaesthesia, in order to be able to appreciate the percentage of triglycerides in the blood. The animals were bled by cutting them the carotids and the blood was collected in plastic test-tubes, capacity 10 ml each, and was centrifuged for ten minutes at 3500 rpm. The evaluated parameter was the lactescence of the serum, which is directly proportional to the contents of kilomicrons and therefore of triglycerides (Zucker, see above the mention). The serum has been diluted 1:5 in a physiologic solution and was read at the spectrophotometer at […] against white (physiologic solution). From the individual optical Density (D.O.) data one could calculate for each group the average of the standard error. The statistical analysis was performed by means of the t of Dunnett.

The subject of assay [4] is Hypercholesterolaemia caused by Trit WR1339 in the mouses. The assay can be described thus: Hypercholesterolaemia of the mouse caused by Triton WR 1339. It is filed as in vivo. As to conditions: dose 2 mM/kg per os. On the procedure: The method described by Garattini S. (Arzneim,Forsch 9, 206; 1959) with some modifications has been followed.
The mouses used have been males of 22 to 28 grams body weight, on an empty stomach but with water "ad libitum" since 12 hours. The hyperlipidaemia was induced by means of an intraperitoneum administration of […] of Triton WR 1339, with dosage 300 mg/kg in a physiological solution. The subject products were administered at the same time in clear plain water, always in a volume of […] by means of a gastric probe. The animals were sacrified after 20 hours, by cutting them the carotids. The blood was collected in some plastic test-tubes, and was centrifuged at 3500 rpm for ten minutes. Thereafter the total cholesterol (Sornay R and colleagues, Arzeneim Forsch, 26,885 1976) and the total lipids (Chonhelmer R and colleagues, Biological Chemistry 106, 745, 1934) were determined.

In assay [5] the test system is Hypertriglyceridaemia caused by ethanole in the rats. The assay can be described thus: Hypertriglyceridaemia caused by ethanol in rats, activity at three dose levels. As to conditions: rat. Format: in vivo. From the text:
(§1) For this test group the methods described by Sistori C.R. and colleagues (Atherosclerosis 30, 45; 1978) is followed.
(§2) The hypertriglyceridaemia has been induced into the male rats having a body weight of 160 - 170 g by giving them to drink, for 4 consecutive days, a solution of 10% ethanole in water.

The test system is the same in assay [6]. The experiment in a line: Hypertriglyceridaemia caused by ethanol in rats, duration of the effects. It is filed as in vivo. The conditions noted are these: rat, dose 1 mM/kg/os.
Excerpt: as §1, §2
In order to perform the particular kinetics of the compound in accordance with the example 1 following the instant invention, it was considered appropriate, anyway, to evaluate the duration of the hypolipaemizing effect in comparison to that of the nicotinic acid.
A group of normal animals was treated with the vehicle only and did serve as a negative control group.

In assay [7] the test system is aggregation of the platelets caused by the collagene. The experiment in a line: Anti-aggregating ex vivo activity against collagen in the rat. As to conditions: rat, 1,00 mM/kg os for 4 days. On the procedure: Six groups of 15 male rats of 200 - 250 g have been used.
The blood taken from the three rats of each group has been mixed and centrifuged during 6 minutes at 1400 rpm, at room temperature. After having taken the plasma full of platelets (PRP) the thereunder floating material has been centrifuged again (4000 rpm during 10 minutes) in order to have the plasma with few platelets (PPP) separated from the balance. The PRP has been diluted with a part of PPP in order to bring the number of platelets to 350 ± 50 x 10³/mm³. The aggregation has been evaluated in accordance with the method of Minsker D.H. and coll. (J. Pharmacol.Exp.Ther. 210 37 1979) by using an ELVI 840 two-channels aggregometer and an Omniscribe recorder B.500. A quantity of 0,25 ml PRP has been used, transferred into the aggregometer for two minutes at 37°C and stirred at 1000 rpm. The light intensity was arranged in such a way, to obtain 0% transmittance with the PRP and 100% with the PPP. After 2′ incubation, by means of microsyringe the collagene was added to the PRP in a volume quantity of 5 mcl with the final concentration of 4 mcg/ml.
From the aggregation trace of the recorder the following data have been evaluated: • a) latent time of the aggregation (seconds between the introductions of collagene and the starting of the aggregation) • b) transmittance increase percentage (maximum aggregation). The same proceeding was repeated for all animals, always by mixing the blood of three rats belonging to the same group and by obtaining in this manner five aggregation curves per group.

Setting [8] is: 0 minutes (before the treatment).
Where [9] appears, read: 20 hours after Triton WR 1339 i.p.
[10] abbreviates: PRP 2 hours after last treatment, collagene 4 mcg/ml.

Turning to `COc1ccc(Cc2nccc3cc(OC)c(OC)cc23)cc1OC` [Papaverin, reference compound], the EC50 in assay [1] (Oryctolagus cuniculus, read-out: DE50) is 760 nM. Also, the “% inhibi-tions of the con-tractions” value in assay [1] (concentration 0,5 μ M) worked out at 33%; in assay [1] (concentration 1,0 μ M), 64%; in assay [1] (concentration 2,0 μ M) it was 81%. Moreover, the “Temperature (°C) of the hind paws (n=10)” value in assay [2] (setting [8]) was 24,5 ± 0,28 °C; in assay [2] (30 minutes from the treatment), 26,6 ± 0,25 °C; in assay [2] (60 minutes from the treatment) it was 25,7 ± 0,20 °C; in assay [2] (120 minutes from the treatment), 25,5 ± 0,23 °C. Besides, the “Temperature (°C) of the hind paws” value in assay [2] (setting [8]) is 24,8 ± 0,35 °C; in assay [2] (30 minutes from the treatment), 25,5 ± 0,21 °C; in assay [2] (60 minutes from the treatment), 25,9 ± 0,25 °C; in assay [2] (120 minutes from the treatment), 25,1 ± 0,30 °C.
With `O=C(O)c1cccnc1` [Nicotinic acid, nicotinic acid], the “Serum opt.density at the indicated times (M ± E.S.)” value in assay [3] (3 h) is recorded as 258 ± 14,9; in assay [3] (6 h), 1312 ± 58,2; in assay [3] (9 h), 1161 ± 53,2; in assay [3] (12 h) it was 1000 ± 31,3; in assay [3] (15 h), 510 ± 18,4; in assay [3] (18 h) it was 250 ± 21,4. Besides, the “Tot.Cholesterol M ± E.S.” value in assay [4] (setting [9]) was 215 ± 16 mg/100 ml. Also, the “Tot.Lipids M ± E.S.” value in assay [4] (setting [9]) was 1643 ± 131 mg/100 ml. Moreover, in assay [4] (reduction), the “Tot.Cholesterol % vs contr.” value is listed as 39,9%. For the same molecule, in assay [4] (reduction), the “Tot.Lipids % vs contr.” value is given as 32,5%. Also, the “Triglycerids M ± E.S.” value in assay [5] (dose 1,0 mM/kg/os once a day for 4 days, 4 hours after last treatment) was 156,4 ± 18,1 mg/100 ml. In addition, the “Triglycerids % vs contr. positivi” value in assay [5] (dose 1,0 mM/kg/os, 4 hours after treatment) was -24,7%. Also, the “decrease (of triglycerides vs positive controls)” value in assay [5] (dose of 1 mM/kg per os) is listed as 24,7%. In addition, the “% variation vs positive controls (Trigliceridi)” value is on record as -29,4% in assay [6] (4 h); -25,5% in assay [6] (6 h); -10,3% in assay [6] (12 h); -3,1% in assay [6] (16 h); “+7,9%” in assay [6] (24 h). Also, the Trigliceridi in assay [6] (4 h from the last treatment) is given as 181,6 ± 15,7 mg/100 ml; in assay [6] (6 h from the last treatment), 176,0 ± 11,2 mg/100 ml; in assay [6] (12 h from the last treatment) it was 184,6 ± 8,9 mg/100 ml; in assay [6] (16 h from the last treatment) it was 180,7 ± 14,5 mg/100 ml; in assay [6] (24 h from the last treatment), 178,4 ± 9,7 mg/100 ml. Moreover, the “Latency time, % variation vs controls” value in assay [7] is “+8,0%”. Also, the “Transmittance percentage, % variation vs controls” value in assay [7] is given as -13,0%. Further, the “Latency time (sec.)” value in assay [7] (setting [10]) is recorded as 40,5 ± 4,0 sec. Further, in assay [7] (setting [10]), the “Transmittance percentage (maximum aggregation)” value is 68,4 ± 5,2%.
